Measurements from patent publication US12649737B2, “Compounds and uses thereof” (Foghorn Therapeutics Inc., priority 2020, dated 2026).

Legend:
BRM = biological target: T1, BRM (Homo sapiens, UniProt P51531); assay: ATPase catalytic activity assay of BRM (ADP-Glo); type: biochemical; settings: 30 nM BRM, 400 μM ATP, 20 nM salmon sperm DNA, 1 hour at room temperature
T1 construct: made in house; host or cells: High Five insect cells
Method: (§1) Example 38. Assay for ATPase Catalytic Activity of BRM and BRG-1
(§2) The ADP-Glo™ kinase assay is performed in two steps once the reaction is complete.

BRG-1 = biological target: T2, BRG-1 (Homo sapiens, UniProt P51532); assay: ATPase catalytic activity assay of BRG-1 (ADP-Glo); type: biochemical; settings: 30 nM BRG-1, 400 μM ATP, 20 nM salmon sperm DNA, 1 hour at room temperature; read-out: BRG1 ATPase: IC50
T2 construct: made in house; host or cells: High Five insect cells
T2 sequence (P51532 whole entry): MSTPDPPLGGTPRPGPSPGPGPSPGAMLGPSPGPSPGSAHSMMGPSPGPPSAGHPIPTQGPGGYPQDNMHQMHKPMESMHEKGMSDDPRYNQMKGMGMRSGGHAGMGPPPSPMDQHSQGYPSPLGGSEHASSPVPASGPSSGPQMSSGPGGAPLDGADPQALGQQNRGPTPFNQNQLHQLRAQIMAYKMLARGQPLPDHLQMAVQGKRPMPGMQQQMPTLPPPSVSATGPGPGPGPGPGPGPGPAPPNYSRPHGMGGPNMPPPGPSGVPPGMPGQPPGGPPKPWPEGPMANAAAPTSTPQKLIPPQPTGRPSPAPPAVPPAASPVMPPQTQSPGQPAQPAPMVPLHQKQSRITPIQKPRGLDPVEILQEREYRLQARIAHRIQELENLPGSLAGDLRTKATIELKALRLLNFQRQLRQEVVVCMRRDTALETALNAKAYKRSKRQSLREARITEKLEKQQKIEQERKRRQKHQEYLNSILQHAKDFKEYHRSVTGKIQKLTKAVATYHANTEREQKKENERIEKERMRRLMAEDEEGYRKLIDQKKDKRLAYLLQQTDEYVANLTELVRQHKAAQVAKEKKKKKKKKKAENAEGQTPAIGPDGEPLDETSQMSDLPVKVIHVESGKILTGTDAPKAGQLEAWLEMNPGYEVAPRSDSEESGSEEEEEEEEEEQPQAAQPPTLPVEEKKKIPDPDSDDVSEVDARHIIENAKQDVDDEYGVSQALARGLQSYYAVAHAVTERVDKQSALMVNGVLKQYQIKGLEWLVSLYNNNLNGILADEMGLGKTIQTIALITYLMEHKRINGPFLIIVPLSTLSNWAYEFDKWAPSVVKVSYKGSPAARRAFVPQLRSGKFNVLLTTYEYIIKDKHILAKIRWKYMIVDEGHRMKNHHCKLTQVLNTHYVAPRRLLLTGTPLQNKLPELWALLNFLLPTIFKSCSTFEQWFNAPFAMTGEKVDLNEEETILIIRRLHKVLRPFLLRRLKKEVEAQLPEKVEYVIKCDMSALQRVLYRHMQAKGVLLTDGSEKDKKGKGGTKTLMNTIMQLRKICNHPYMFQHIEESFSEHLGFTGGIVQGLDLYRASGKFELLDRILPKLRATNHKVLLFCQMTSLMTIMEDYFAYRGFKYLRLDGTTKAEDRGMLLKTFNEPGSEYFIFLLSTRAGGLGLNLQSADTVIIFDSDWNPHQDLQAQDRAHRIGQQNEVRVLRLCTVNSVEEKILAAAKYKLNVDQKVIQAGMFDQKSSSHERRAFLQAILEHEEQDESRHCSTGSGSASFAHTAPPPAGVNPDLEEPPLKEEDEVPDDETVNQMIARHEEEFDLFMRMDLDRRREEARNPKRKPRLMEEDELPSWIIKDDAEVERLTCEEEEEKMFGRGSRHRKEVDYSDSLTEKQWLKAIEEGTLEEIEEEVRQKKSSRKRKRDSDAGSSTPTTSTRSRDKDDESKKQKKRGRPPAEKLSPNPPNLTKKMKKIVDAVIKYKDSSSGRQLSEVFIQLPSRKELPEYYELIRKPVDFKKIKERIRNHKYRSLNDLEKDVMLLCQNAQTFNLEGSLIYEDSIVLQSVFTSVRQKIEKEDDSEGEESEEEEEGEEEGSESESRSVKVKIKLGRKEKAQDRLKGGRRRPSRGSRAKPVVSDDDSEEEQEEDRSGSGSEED
Method: as §1, §2

T1 sequence (P51531 whole entry): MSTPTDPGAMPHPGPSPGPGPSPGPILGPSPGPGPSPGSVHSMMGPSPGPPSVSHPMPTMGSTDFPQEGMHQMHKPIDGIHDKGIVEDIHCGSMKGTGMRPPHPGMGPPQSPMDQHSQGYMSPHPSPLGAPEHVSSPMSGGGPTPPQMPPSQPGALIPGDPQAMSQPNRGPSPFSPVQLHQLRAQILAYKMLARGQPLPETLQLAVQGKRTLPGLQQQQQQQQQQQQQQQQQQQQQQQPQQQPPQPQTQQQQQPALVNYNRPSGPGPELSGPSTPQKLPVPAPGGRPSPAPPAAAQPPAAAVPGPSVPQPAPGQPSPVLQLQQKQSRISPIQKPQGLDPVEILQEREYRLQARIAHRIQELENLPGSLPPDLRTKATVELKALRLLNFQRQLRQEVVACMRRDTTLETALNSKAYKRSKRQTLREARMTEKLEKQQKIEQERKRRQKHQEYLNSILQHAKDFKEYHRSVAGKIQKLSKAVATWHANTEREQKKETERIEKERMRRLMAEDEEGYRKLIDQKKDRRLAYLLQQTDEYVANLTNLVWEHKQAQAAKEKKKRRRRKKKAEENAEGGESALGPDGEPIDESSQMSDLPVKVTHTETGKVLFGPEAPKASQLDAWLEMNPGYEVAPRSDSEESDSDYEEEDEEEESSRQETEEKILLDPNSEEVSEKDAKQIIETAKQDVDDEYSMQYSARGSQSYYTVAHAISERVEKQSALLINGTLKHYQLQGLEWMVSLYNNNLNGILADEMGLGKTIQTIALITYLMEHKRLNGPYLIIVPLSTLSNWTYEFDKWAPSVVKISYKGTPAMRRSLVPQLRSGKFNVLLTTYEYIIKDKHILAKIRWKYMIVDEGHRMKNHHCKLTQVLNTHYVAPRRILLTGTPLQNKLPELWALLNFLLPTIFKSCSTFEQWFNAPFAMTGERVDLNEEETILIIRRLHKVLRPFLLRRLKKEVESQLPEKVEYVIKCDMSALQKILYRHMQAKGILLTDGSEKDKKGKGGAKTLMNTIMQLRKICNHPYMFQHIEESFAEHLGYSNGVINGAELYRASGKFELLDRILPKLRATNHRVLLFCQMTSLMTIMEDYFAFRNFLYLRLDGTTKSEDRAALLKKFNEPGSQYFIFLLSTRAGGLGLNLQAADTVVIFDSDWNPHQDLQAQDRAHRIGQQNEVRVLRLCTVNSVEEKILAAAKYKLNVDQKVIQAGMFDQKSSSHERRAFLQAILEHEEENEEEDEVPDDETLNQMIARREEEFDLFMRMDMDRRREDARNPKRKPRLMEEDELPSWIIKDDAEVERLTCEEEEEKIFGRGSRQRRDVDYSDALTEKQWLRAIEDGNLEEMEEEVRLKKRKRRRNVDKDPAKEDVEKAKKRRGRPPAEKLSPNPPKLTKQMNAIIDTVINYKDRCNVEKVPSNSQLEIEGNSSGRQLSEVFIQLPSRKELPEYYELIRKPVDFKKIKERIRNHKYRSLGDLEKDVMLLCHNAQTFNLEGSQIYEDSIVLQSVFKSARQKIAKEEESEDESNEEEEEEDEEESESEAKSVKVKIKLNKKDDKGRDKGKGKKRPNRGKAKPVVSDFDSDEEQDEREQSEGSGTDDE

Question: For CC(C)(C)n1ccc(C(=O)NCc2nc3ccc(-c4ccc(-n5cccn5)cc4)cc3[nH]2)c1 [Compound 54], which IC50 (BRM) is on record?
Answer: 100 to 1000 nM

Question: What about the IC50 (BRG-1) of the same compound?
Answer: 100 to 1000 nM

Question: With CC(C)(C)n1ccc(C(=O)NCc2nc3ccc(-c4ccc(N5CCOCC5)nc4)cc3[nH]2)c1 [Compound 55] as the compound, how does the IC50 (BRM) read?
Answer: 100 to 1000 nM

Question: What about the IC50 (BRG-1) of the same compound?
Answer: 100 to 1000 nM

Question: With CN(C)c1ncc(-c2ccc3nc(CNC(=O)c4ccn(C(C)(C)C)c4)[nH]c3c2)cn1 [Compound 56] as the compound, how does the IC50 (BRM) read?
Answer: 10 to 100 nM

Question: What about the IC50 (BRG-1) of the same compound?
Answer: 10 to 100 nM

Question: Which results are given for Cc1ccc2cc(-c3ccc4nc(CNC(=O)c5ccn(C(C)(C)C)c5)[nH]c4c3)ccc2n1 [Compound 57]?
Answer: IC50 (BRM): 10 to 100 nM; IC50 (BRG-1): 10 to 100 nM

Question: Which results are given for CC(C)(C)n1ccc(C(=O)NCc2nc3ccc(-c4ccc5c(c4)OCO5)cc3[nH]2)c1 [Compound 58]?
Answer: IC50 (BRM): 10 to 100 nM; IC50 (BRG-1): 100 to 1000 nM

Question: How did the IC50 (BRM) turn out when COCCOc1ccc(-c2ccc3nc(CNC(=O)c4ccn(C(C)(C)C)c4)[nH]c3c2)cc1 [Compound 59] was run?
Answer: 100 to 1000 nM

Question: And the IC50 (BRG-1)?
Answer: 100 to 1000 nM

Question: Which results are given for COc1ncc(-c2ccc3nc(CNC(=O)c4ccn(C(C)(C)C)c4)[nH]c3c2)cc1Cl [Compound 60]?
Answer: IC50 (BRM): 10 to 100 nM; IC50 (BRG-1): 100 to 1000 nM

Question: Which IC50 (BRM) does the source give for CS(=O)(=O)n1ccc(C(=O)NCc2cc3nc(-c4ccccc4)ccc3cn2)c1 [Compound 61, 1-(methylsulfonyl)-N-((2-phenyl-1,6-naphthyridin-7-yl)methyl)-1H-pyrrole-3-carboxamide] here?
Answer: 100 to 1000 nM

Question: And the IC50 (BRG-1)?
Answer: 100 to 1000 nM

Question: Which results are given for COc1cccc(-c2ccc3cnc(CNC(=O)c4ccn(S(C)(=O)=O)c4)cc3n2)c1 [Compound 62]?
Answer: IC50 (BRM): 100 to 1000 nM; IC50 (BRG-1): 100 to 1000 nM

Question: Which IC50 (BRM) does the source give for CS(=O)(=O)n1ccc(C(=O)NCc2cc3nc(-c4ccc(N5CCC5)cc4)ccc3cn2)c1 [Compound 63] here?
Answer: 100 to 1000 nM

Question: And the IC50 (BRG-1)?
Answer: 100 to 1000 nM

Question: With CS(=O)(=O)n1ccc(C(=O)NCc2cc3nc(-c4cccc(N5CCC5)c4)ccc3cn2)c1 [Compound 64, N-[[2-[3-(azetidin-1-yl)phenyl]-1,6-naphthyridin-7-yl]methyl]-1-methylsulfonyl-pyrrole-3-carboxamide] as the compound, how does the IC50 (BRM) read?
Answer: 10 to 100 nM

Question: What about the IC50 (BRG-1) of the same compound?
Answer: 100 to 1000 nM

Question: Which IC50 (BRM) does the source give for CS(=O)(=O)n1ccc(C(=O)NCc2cc3nc(-c4cccc(C(F)F)c4)ccc3cn2)c1 [Compound 65] here?
Answer: 100 to 1000 nM

Question: And the IC50 (BRG-1)?
Answer: 100 to 1000 nM

Question: Which results are given for CS(=O)(=O)n1ccc(C(=O)NCc2cc3nc(-c4cccc(C#N)c4)ccc3cn2)c1 [Compound 66, N-((2-(3-cyanophenyl)-1,6-naphthyridin-7-yl)methyl)-1-(methylsulfonyl)-1H-pyrrole-3-carboxamide]?
Answer: IC50 (BRM): > 1000 nM; IC50 (BRG-1): > 1000 nM

Question: What does the source list for CS(=O)(=O)n1ccc(C(=O)NCc2cc3nc(-c4ccc5c(c4)CCO5)ccc3cn2)c1 [Compound 67]?
Answer: IC50 (BRM): 100 to 1000 nM; IC50 (BRG-1): 100 to 1000 nM

Question: How did the IC50 (BRM) turn out when CS(=O)(=O)n1ccc(C(=O)NCc2cc3nc(-c4ccc5c(c4)OCC5)ccc3cn2)c1 [Compound 68] was run?
Answer: 100 to 1000 nM

Question: What about the IC50 (BRG-1) of the same compound?
Answer: 100 to 1000 nM

Question: What does the source list for CN1CCOc2ccc(-c3ccc4cnc(CNC(=O)c5ccn(S(C)(=O)=O)c5)cc4n3)cc21 [Compound 69]?
Answer: IC50 (BRM): 10 to 100 nM; IC50 (BRG-1): 100 to 1000 nM

Question: CS(=O)(=O)n1ccc(C(=O)NCc2cc3nc(-c4cccc(OC5CC5)c4)ccc3cn2)c1 [Compound 70] was tested. Which IC50 (BRM) did it give?
Answer: 100 to 1000 nM

Question: What about the IC50 (BRG-1) of the same compound?
Answer: 100 to 1000 nM

Question: For Cn1cc(-c2cccc(-c3ccc4cnc(CNC(=O)c5ccn(S(C)(=O)=O)c5)cc4n3)c2)cn1 [Compound 71], which IC50 (BRM) is on record?
Answer: 10 to 100 nM

Question: And the IC50 (BRG-1)?
Answer: 100 to 1000 nM

Question: How did the IC50 (BRM) turn out when CN1CCc2cc(-c3ccc4cnc(CNC(=O)c5ccn(S(C)(=O)=O)c5)cc4n3)ccc21 [Compound 72] was run?
Answer: 100 to 1000 nM

Question: And the IC50 (BRG-1)?
Answer: 100 to 1000 nM

Question: Which results are given for CS(=O)(=O)n1ccc(C(=O)NCc2cc3nc(-c4ccccc4)sc3cn2)c1 [Compound 73, 1-methylsulfonyl-N-[(2-phenylthiazolo[5,4-c]pyridin-6-yl)methyl]pyrrole-3-carboxamide]?
Answer: IC50 (BRM): 100 to 1000 nM; IC50 (BRG-1): 100 to 1000 nM

Question: Which IC50 (BRM) does the source give for COc1ccccc1-c1ccc2cnc(CNC(=O)c3ccn(S(C)(=O)=O)c3)cc2n1 [Compound 75] here?
Answer: 10 to 100 nM

Question: What about the IC50 (BRG-1) of the same compound?
Answer: 100 to 1000 nM

Question: Which results are given for C[C@@H]1CN(c2cccc(-c3ccc4cnc(CNC(=O)c5ccn(S(C)(=O)=O)c5)cc4n3)n2)C[C@H](C)O1 [Compound 76, N-((2-(6-(cis-2,6-dimethylmorpholino)pyridin-2-yl)-1,6-naphthyridin-7-yl)methyl)-1-(methylsulfonyl)-1H-pyrrole-3-carboxamide]?
Answer: IC50 (BRM): < 10 nM; IC50 (BRG-1): 10 to 100 nM

Question: What does the source list for C[C@@H]1CN(c2cccc(-c3ccc4cnc(CNC(=O)c5ccn(C(C)(C)C)c5)cc4n3)n2)C[C@H](C)O1 [Compound 77]?
Answer: IC50 (BRM): 10 to 100 nM; IC50 (BRG-1): 10 to 100 nM

Question: For C[C@@H]1CN(c2cccc(-c3ccc4cnc(CNC(=O)c5ccn(C(C)(C)C)n5)cc4n3)n2)C[C@H](C)O1 [Compound 78], which IC50 (BRM) is on record?
Answer: 10 to 100 nM

Question: What about the IC50 (BRG-1) of the same compound?
Answer: 100 to 1000 nM

Question: C[C@@H]1CN(c2cccc(-c3ccc4cnc(CNC(=O)c5ccn(C(C)(C)C#N)n5)cc4n3)n2)C[C@H](C)O1 [Compound 79] was tested. Which IC50 (BRM) did it give?
Answer: 10 to 100 nM

Question: What about the IC50 (BRG-1) of the same compound?
Answer: 10 to 100 nM

Question: Which IC50 (BRM) does the source give for CS(=O)(=O)n1ccc(C(=O)NCc2cc3nc(-c4cncc(C5CC5)n4)ccc3cn2)c1 [Compound 80, N-[[2-(6-cyclopropylpyrazin-2-yl)-1,6-naphthyridin-7-yl]methyl]-1-methylsulfonyl-pyrrole-3-carboxamide] here?
Answer: 10 to 100 nM

Question: And the IC50 (BRG-1)?
Answer: 100 to 1000 nM

Question: Which IC50 (BRM) does the source give for COC[C@H](NC(=O)c1ccn(S(C)(=O)=O)c1)c1cc2nc(-c3cccc(N4C[C@@H](C)O[C@@H](C)C4)n3)ccc2cn1 [Compound 82] here?
Answer: 10 to 100 nM

Question: And the IC50 (BRG-1)?
Answer: 100 to 1000 nM
